Experimental data published in patent US9090627B2 (priority 2012, dated 2015).

Assays:
[1] = human
[2] = rat
mice = conditions: mouse, in vivo; cited from earlier work

Compound	Change in penetration with application time [1]	Skin penetration behavior (layer reached) [2]	LD50 in mice (mice)
CCN1C[C@]2(COC)[C@H](O)C[C@H](OC)[C@@]34[C@@H]5C[C@@]6(O)[C@H](OC(=O)c7ccccc7)[C@@H]5[C@@](OC(C)=O)([C@@H]([C@H](OC)[C@H]23)[C@@H]14)[C@@H](O)[C@@H]6OC [aconitine]	increased penetration occurring at 4 and 10 hours of application in comparison to 1 hour	Complete skin penetration	–
Batrachotoxin	–	–	2 µg/kg
